Results as given in patent US12144789B2, “Pharmaceutical composition exhibiting anti-tumor activity, method for treating patient suffering from cancer and method for inhibiting tumor growth” (Gongwin Biopharm Co., Ltd., priority 2016, dated 2024).
Like-named read-outs stand apart in the source and are kept apart here.

Experiments:
[1] = test system: Tca-8113 cells; assay type: cell-based; conditions: human; for intracellular PTS concentration variation between Tca-8113 cells and HGF cells: 10 min
Protocol: Firstly, Tca-8113 were treated with PTS or dimethyl sulfoxide (DMSO) (control vehicle) and then extract the intracellular matrix subjected to high-performance liquid chromatography.
(§1) In assessing the accumulation of intracellular PTS between Tca-8113 cells and normal cells after different doses and incubation periods of PTS treatment, Tca-8113 and Human gingival fibroblast (HGF) cells were treated 2.5 μmol/l˜80 μmol/l PTS for different periods. Please see FIG. 2A and FIG. 2B, which show the plots of intracellular PTS concentration after 2.5 μmol/l˜80 μmol/l PTS treatment for different periods of time in Tca-8113 and HGF cell, respectively. […] However, the accumulated intracellular PTS concentration in […] cells is much higher than that in HGF cells. […] The intracellular PTS concentration variation between the Tca-8113 cells and HGF cells can range from 5× (20 μmol/l), 8× (40 μmol/l) to 12 (80 μmol/l).

[2] = test system: Human gingival fibroblast (HGF) cells; assay type: cell-based; conditions: 10 min
Protocol: as §1

[3] = test system: Tca-8113 cells; test: MTT cell viability assay; assay type: cell-based; conditions: for suppression ratio (cancer cell suppression %/normal cell suppression %): Tca-8113 vs HGF
Protocol: (§2) To examine the effects of PTS on cell viability, Tca-8113 and HGF cells were treated with different doses of PTS for 1 h. The 3-(4,5-dimethylthiazol-2-yl)-2,5-diphenyltetrazolium bromide (MTT) assay is conducted by treating Tca-8113 and human gingival fibroblast (HGF) cells with 2.5 μmol/l, 5 μmol/l, 10 μmol/l, 20 μmol/l, 40 μmol/l and 80 μmol/l PTS for 1 h, respectively. The effects of PTS on cell viability were assessed using MTT 72 h after treatment. […] PTS induces more significant cell death in […] cells than that in normal gingival fibroblasts. Taking the 10 μmol/l […] treatment for example, about 50% Tca-8113 cells were suppressed while only 10% […] cells were suppressed, so the suppression ratio (cancer cell suppression %/normal cell suppression %) is 5. Similarly, the suppression ratios of 20 μmol/l, 40 μmol/l and 80 μmol/l are 2.6, 1.8, 1.05.

[4] = test system: Human gingival fibroblast (HGF) cells; assay type: cell-based
Protocol: as §2

[5] = test system: Tca-8113 cells; test: Morphologic changes by phase-contrast microscope; assay type: cell-based; conditions: 40 μmol/l PTS for 1 h
Protocol: Next, in observing the morphological feature of the treated cells, Tca-8113 and HGF cells were treated with 40 μmol/l PTS or DMSO (control vehicle) for 1 h; the morphologic changes were observed using a phase-contrast microscope.

[6] = test system: Tca-8113 cells; test: Colony formation assay; assay type: cell-based; conditions: 80 μmol/l PTS
Text: Colony formation assay shown in FIG. 6 further confirms the cytotoxic effects of PTS on Tca-8113 cells.

[7] = test system: Tca-8113 cells; test: cells; assay type: cell-based; conditions: 1 h
Protocol: Next, cancer cell death is measured by using flow cytometric analysis. Tca-8113 cells were treated with 40 μmol/l and 80 μmol/l PTS or DMSO (control) for 1 h. Cells were stained with Annexin V− FITC and propidium iodide (PI), followed by flow cytometric analysis.

[8] = test system: Tca-8113 cells; test: Lactate dehydrogenase (LDH) release assay (necrosis); assay type: cell-based; conditions: 80 μmol/l PTS, 1 h
Protocol: Furthermore, in studying PTS-induced necrosis, LDH release assay is used. LDH is a cytosolic enzyme that can be released into culture medium upon damage of the plasma membrane. Necrosis, which results in an early loss of plasma membrane integrity, can be determined using the LDH release assay. In LDH release assay, Tca-8113 cells were treated with 80 μmol/l PTS or DMSO for 1 h; PTS-induced necrosis was determined using the lactate dehydrogenase (LDH) release assay.

[9] = test system: Tca-8113 cells; test: Transwell migration assay; assay type: cell-based; conditions: 40 μmol/l PTS, 1 h
Protocol: The effect of PTS on the invasive ability of cancer cells is also investigated. Tca-8113 cells were treated with 40 μmol/l PTS or DMSO for 1 h; the effects of PTS on cell migration were determined using a transwell migration assay.

[10] = test system: Tca-8113 cells; test: Transmission electron microscopy of ultrastructural changes; assay type: cell-based; conditions: 40 μmol/l PTS, 1 h
Protocol: To investigate the mechanisms of PTS-induced cell death, the present invention uses transmission electron microscopy analysis to observe the changes in ultrastructures of Tca-8113 cells. Tca-8113 cells were treated with 40 μmol/l PTS or dimethyl sulfoxide for 1 h. The ultrastructural changes were observed using a transmission electron microscope. […] More secondary lysosomes (pointed by arrow) with high electron density were observed after PTS treatment. Lysosomal instability was proposed to control the fate of cells either through activation of apoptosis or necrosis.

[11] = test system: Lysosomes of Tca-8113 cells; test: Lysosomal integrity assay (LMP), lysosomal β-galactosidase free activity; assay type: biochemical; conditions: isolated lysosomes of Tca-8113 cells
Protocol: Next, a lysosomal integrity assay (LMP) is performed to assess the effects of PTS on lysosomal membrane integrity. Lysosomes of Tca-8113 cells were isolated using the Percoll gradient centrifugation method. The effects of PTS on lysosomal integrity were assessed by measuring the activity of lysosomal β-galactosidase using UMBG (4-methylumbelliferyl-β-D-galactoside). The 4-methylumbelliferone released was determined by measuring its fluorescence (excitation: 365 nm, emission: 444 nm) on a fluorescence spectrophotometer. The activity of the enzyme measured in the presence and absence of 0.36% Triton X-100 was designated the […], respectively.

[12] = test system: cathepsin B; test: Western blot analysis of cleaved cathepsin B; assay type: cell-based; conditions: Tca-8113 cells, 40 μmol/l PTS, 1 h
Protocol: In the western blot analysis, Tca-8113 cells are analyzed after 40 μmol/l PTS treatment for 1 h.

[13] = test system: cytochrome c; test: Western blot analysis of cytosolic cytochrome c; assay type: cell-based; conditions: Tca-8113 cells, 40 μmol/l and 80 μmol/l PTS, 1 h
Protocol: (§3) Increased lysosomal permeability is reported to induce mitochondrial damage and the release of pro-apoptotic factors. The applicant therefore investigated the cytosolic cytochrome c released from the mitochondria after PTS treatment. […] Inhibition of ATP biosynthesis is observed when Tca-8113 cells were treated with 40 μmol/l PTS or DMSO for […]. The effects of PTS on ATP biosynthesis were assessed by measuring chemiluminescence. […] 40 μmol/l PTS treatment for 1 h attenuated ATP biosynthesis to 65.8%.

[14] = test system: mitochondrial ATP biosynthesis in Tca-8113 cells; test: ATP biosynthesis by chemiluminescence; assay type: cell-based; conditions: 40 μmol/l PTS
Protocol: as §3

[15] = cited from earlier work
[16] = 10 μmol/l for 1 h, MTT 72 h after treatment
[17] = read-out: Viable cells (Annexin V−/PI−)

## Cc1ccc(S(N)(=O)=O)cc1 [PTS, para-toluenesulfonamide]
[1]
  intracellular PTS concentration: increase the intracellular PTS concentration in Tca-8113 cells in a dose dependent manner
[1]; 20 μmol/l
  intracellular PTS concentration variation between Tca-8113 cells and HGF cells: 5 ×
[1]; 40 μmol/l
  intracellular PTS concentration variation between Tca-8113 cells and HGF cells: 8 ×
[1]; 80 μmol/l
  intracellular PTS concentration variation between Tca-8113 cells and HGF cells: 12
[2]
  intracellular PTS accumulation: significantly inhibited in HGF cells compared with that in Tca-8113 cells
[3]; [16]
  Tca-8113 cells suppressed: about 50%
[3]; 10 μmol/l
  suppression ratio (cancer cell suppression %/normal cell suppression %): 5
[3]; 20 μmol/l
  suppression ratio (cancer cell suppression %/normal cell suppression %): 2.6
[3]; 40 μmol/l
  suppression ratio (cancer cell suppression %/normal cell suppression %): 1.8
[3]; 80 μmol/l PTS for 1 h, MTT 72 h after treatment
  number of viable cells: almost completely suppressed the number of viable cells
[3]; 80 μmol/l
  suppression ratio (cancer cell suppression %/normal cell suppression %): 1.05
[3]; 2.5-80 μmol/l PTS for 1 h, MTT 72 h after treatment
  viability of Tca-8113 cells: significantly reduced the viability of Tca-8113 cells in a dose-dependent manner
[4]; [16]
  HGF cells suppressed: 10%
[4]; human, 1 h
  inhibitory effects of PTS in HGF cells: significantly decreased compared with that in Tca-8113 cells
[5]
  morphologic changes: induce classical apoptotic features including cell shrinkage, nuclear condensation, cell density reduction, and apoptotic body formation
[6]
  number of viable cells (colony formation): almost completely suppressed the number of viable cells
[7]; 40 μmol/l PTS
  Late apoptotic/necrotic rate (Annexin V+/PI+): 11.5%
  early apoptotic rate (Annexin V+/PI−): 20.2%
[7]; 80 μmol/l PTS
  Late apoptotic/necrotic rate (Annexin V+/PI+): 15.9%
  early apoptotic rate (Annexin V+/PI−): 64.1%
[7]; [17]
  viability at 40 µM: 67.5%
  viability at 80 µM: 19.8%
[8]
  LDH release compared with the control group: two-fold increase
[9]
  invasive ability (cell migration): significantly reduced the invasive ability of Tca-8113 cells
[10]
  ultrastructural changes: shrunk nuclei and an irregular nuclear membrane
[11]
  free enzyme activity (lysosomal β-galactosidase): significantly increase free enzyme activity in a dose-dependent manner
[12]
  cleaved cathepsin B expression: significantly increases cleaved cathepsin B expression
[13]
  cytosolic cytochrome c expression: significantly induced cytosolic cytochrome c expression
[14]; 24-48 h
  mitochondrial ATP biosynthesis: significantly inhibited mitochondrial ATP biosynthesis in a time-dependent manner
[14]; 1 h
  ATP biosynthesis attenuated to: 65.8%
[15]
  solubility in water or a water-based solution: not readily dissolved in water or in a water-based solution
